Laboratory results reported in patent US12129221B2, “Difluoro phenyl amide RIP1 inhibitor” (SIRONAX LTD, priority 2018, dated 2024).

tested on: necrosis; experiment: Necrosis inhibitory activity (cell necrosis / cell viability assay); assay type: cell-based; conditions: Necrosis Inhibitory Activity, given as range; read-out: EC50
Text: Necrosis Inhibitory Activity
Representative IC50 of hRIP1 Kinase Assay Correlated with Our IC50 of Cell Necrosis Assay: […]

Compound	EC50 [µM]
CCC(C)(C)C(=O)N(O)Cc1ccccc1F [Compound 1, N-(2-fluorobenzyl)-N-hydroxy-2,2-dimethylbutanamide]	0.001 to 1
CCC(C)(C)C(=O)N(O)Cc1cccc(F)c1 [Compound 2, N-(3-fluorobenzyl)-N-hydroxy-2,2-dimethylbutanamide]	0.001 to 1
CCC(C)(C)C(=O)N(O)Cc1ccccc1Cl [Compound 3, N-(2-chlorobenzyl)-N-hydroxy-2,2-dimethylbutanamide]	0.001 to 1
CCC(C)(C)C(=O)N(O)Cc1cccc(Cl)c1 [Compound 4, N-(3-chlorobenzyl)-N-hydroxy-2,2-dimethylbutanamide]	0.001 to 1
CCC(C)(C)C(=O)N(O)Cc1cccc(Br)c1 [Compound 5, N-(3-bromobenzyl)-N-hydroxy-2,2-dimethylbutanamide]	0.001 to 1
CC(C)(C(=O)N(O)Cc1ccccc1)C(F)(F)F [Compound 6, N-benzyl-3,3,3-trifluoro-N-hydroxy-2,2-dimethylpropanamide]	0.001 to 1
CC(C)(C)C(=O)N(O)Cc1ccccc1 [Compound 7, N-benzyl-N-hydroxypivalamide]	0.001 to 1
CCC(C)(C)C(=O)N(O)Cc1ccccn1 [Compound 8, N-hydroxy-2,2-dimethyl-N-(pyridin-2-ylmethyl)butanamide]	1 to 10
CCC(C)(C)C(=O)N(O)Cc1cccc(F)c1F [Compound 9, N-(2,3-difluorobenzyl)-N-hydroxy-2,2-dimethylbutanamide]	0.001 to 1
CCC(C)(C)C(=O)N(O)Cc1c(F)cc(F)cc1F [Compound 10, N-hydroxy-2,2-dimethyl-N-(2,4,6-trifluorobenzyl)butanamide]	1 to 10
CCC(C)(C)C(=O)N(O)Cc1c(F)c(F)c(F)c(F)c1F [Compound 11, N-hydroxy-2,2-dimethyl-N-((perfluorophenyl)methyl)butanamide]	1 to 10
CCC(C)(C)C(=O)N(O)Cc1cc(F)cc(C#N)c1 [Compound 12, N-(3-cyano-5-fluorobenzyl)-N-hydroxy-2,2-dimethylbutanamide]	0.001 to 1
CCC(C)(C)C(=O)N(O)Cc1cc(F)ccc1F [Compound 14, N-(2,5-difluorobenzyl)-N-hydroxy-2,2-dimethylbutanamide]	0.001 to 1
CCC(C)(C)C(=O)N(O)Cc1cc(F)cc(Cl)c1 [Compound 17, N-(3-chloro-5-fluorobenzyl)-N-hydroxy-2,2-dimethylbutanamide]	0.001 to 1
CCC(C)(C)C(=O)N(O)Cc1ccc(Br)cc1 [Compound 18, N-(4-bromobenzyl)-N-hydroxy-2,2-dimethylbutanamide]	0.001 to 1
CCC(C)(C)C(=O)N(O)Cc1cc(C)c(C)s1 [Compound 21, N-((4,5-dimethylthiophen-2-yl)methyl)-N-hydroxy-2,2-dimethylbutanamide]	0.001 to 1
CCC(C)(C)C(=O)N(O)Cc1sccc1C [Compound 22, N-hydroxy-2,2-dimethyl-N-((3-methylthiophen-2-yl)methyl)butanamide]	1 to 10
CCC(C)(C)C(=O)N(O)CC1=CCCCC1 [Compound 25, N-(cyclohex-1-en-1-ylmethyl)-N-hydroxy-2,2-dimethylbutanamide]	0.001 to 1
[2H]C([2H])C([2H])([2H])C(C)(C)C(=O)N(O)Cc1ccc(F)cc1 [Compound 29, N-(4-fluorobenzyl)-N-hydroxy-2,2-dimethylbutanamide-3,3,4,4-d4]	0.001 to 1

tested on: ferroptosis; experiment: Ferroptosis inhibitor activity; assay type: cell-based; conditions: 1 uM threshold activity extrapolated
Text: Ferroptosis Inhibitor Activity 1 Um Threshold Activity Extrapolated

Compound	EC50 [µM]
CC(C)(C(=O)N(O)Cc1ccccc1)C(F)(F)F [Compound 6, N-benzyl-3,3,3-trifluoro-N-hydroxy-2,2-dimethylpropanamide]	1 to 10
CC(C)(C)C(=O)N(O)Cc1ccccc1 [Compound 7, N-benzyl-N-hydroxypivalamide]	1 to 10
CCC(C)(C)C(=O)N(O)Cc1c(F)cc(F)cc1F [Compound 10, N-hydroxy-2,2-dimethyl-N-(2,4,6-trifluorobenzyl)butanamide]	1 to 10
CCC(C)(C)C(=O)N(O)Cc1c(F)c(F)c(F)c(F)c1F [Compound 11, N-hydroxy-2,2-dimethyl-N-((perfluorophenyl)methyl)butanamide]	1 to 10
CCC(C)(C)C(=O)N(O)Cc1cc(F)cc(C#N)c1 [Compound 12, N-(3-cyano-5-fluorobenzyl)-N-hydroxy-2,2-dimethylbutanamide]	1 to 10
CCC(C)(C)C(=O)N(O)Cc1cc(C)c(C)s1 [Compound 21, N-((4,5-dimethylthiophen-2-yl)methyl)-N-hydroxy-2,2-dimethylbutanamide]	1 to 10
CCC(C)(C)C(=O)N(O)Cc1sccc1C [Compound 22, N-hydroxy-2,2-dimethyl-N-((3-methylthiophen-2-yl)methyl)butanamide]	1 to 10
CCC(C)(C)C(=O)N(O)CC1=CCCCC1 [Compound 25, N-(cyclohex-1-en-1-ylmethyl)-N-hydroxy-2,2-dimethylbutanamide]	1 to 10

Now from value to molecule:

EC50 [µM]	Compound
1 to 10	CCC(C)(C)C(=O)N(O)Cc1ccccc1F [Compound 1, N-(2-fluorobenzyl)-N-hydroxy-2,2-dimethylbutanamide]
1 to 10	CCC(C)(C)C(=O)N(O)Cc1cccc(F)c1 [Compound 2, N-(3-fluorobenzyl)-N-hydroxy-2,2-dimethylbutanamide]
1 to 10	CCC(C)(C)C(=O)N(O)Cc1ccccc1Cl [Compound 3, N-(2-chlorobenzyl)-N-hydroxy-2,2-dimethylbutanamide]
1 to 10	CCC(C)(C)C(=O)N(O)Cc1cccc(Cl)c1 [Compound 4, N-(3-chlorobenzyl)-N-hydroxy-2,2-dimethylbutanamide]
1 to 10	CCC(C)(C)C(=O)N(O)Cc1cccc(Br)c1 [Compound 5, N-(3-bromobenzyl)-N-hydroxy-2,2-dimethylbutanamide]
1 to 10	CCC(C)(C)C(=O)N(O)Cc1ccccn1 [Compound 8, N-hydroxy-2,2-dimethyl-N-(pyridin-2-ylmethyl)butanamide]
1 to 10	CCC(C)(C)C(=O)N(O)Cc1cccc(F)c1F [Compound 9, N-(2,3-difluorobenzyl)-N-hydroxy-2,2-dimethylbutanamide]
1 to 10	CCC(C)(C)C(=O)N(O)Cc1cc(F)ccc1F [Compound 14, N-(2,5-difluorobenzyl)-N-hydroxy-2,2-dimethylbutanamide]
1 to 10	CCC(C)(C)C(=O)N(O)Cc1cc(F)cc(Cl)c1 [Compound 17, N-(3-chloro-5-fluorobenzyl)-N-hydroxy-2,2-dimethylbutanamide]
1 to 10	CCC(C)(C)C(=O)N(O)Cc1ccc(Br)cc1 [Compound 18, N-(4-bromobenzyl)-N-hydroxy-2,2-dimethylbutanamide]
1 to 10	[2H]C([2H])C([2H])([2H])C(C)(C)C(=O)N(O)Cc1ccc(F)cc1 [Compound 29, N-(4-fluorobenzyl)-N-hydroxy-2,2-dimethylbutanamide-3,3,4,4-d4]
